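Five concentrations, 48 hours, 96-well plates. GI50: concentration for 50% inhibition of growth. TGI is the concentration that stops growth completely.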
Tests used:
Assay in all cases: DTP human tumour cell line panel, 48 h
786-0 renal = tested on: 786-0 renal
A498 renal = tested on: A498 renal
A549 NSCLC = tested on: A549 NSCLC
ACHN renal = tested on: ACHN renal
BT-549 breast = tested on: BT-549 breast
CAKI-1 renal = tested on: CAKI-1 renal
CCRF-CEM leukemia = tested on: CCRF-CEM leukemia
COLO 205 colon = tested on: COLO 205 colon
DU-145 prostate = tested on: DU-145 prostate
EKVX NSCLC = tested on: EKVX NSCLC
HCC-2998 colon = tested on: HCC-2998 colon
HCT-116 colon = tested on: HCT-116 colon
HCT-15 colon = tested on: HCT-15 colon
HL-60(TB) leukemia = tested on: HL-60(TB) leukemia
HOP-62 NSCLC = tested on: HOP-62 NSCLC
HOP-92 NSCLC = tested on: HOP-92 NSCLC
HS 578T breast = tested on: HS 578T breast
HT29 colon = tested on: HT29 colon
IGROV1 ovarian = tested on: IGROV1 ovarian
K-562 leukemia = tested on: K-562 leukemia
KM12 colon = tested on: KM12 colon
LOX IMVI melanoma = tested on: LOX IMVI melanoma
M14 melanoma = tested on: M14 melanoma
MALME-3M melanoma = tested on: MALME-3M melanoma
MCF7 breast = tested on: MCF7 breast
MDA-MB-231 breast = tested on: MDA-MB-231 breast
MDA-MB-435 = tested on: MDA-MB-435
MDA-MB-468 breast = tested on: MDA-MB-468 breast
MOLT-4 leukemia = tested on: MOLT-4 leukemia
NCI-H226 lung = tested on: NCI-H226 lung
NCI-H23 lung = tested on: NCI-H23 lung
NCI-H460 lung = tested on: NCI-H460 lung
NCI-H522 lung = tested on: NCI-H522 lung
NCI/ADR-RES ovarian = tested on: NCI/ADR-RES ovarian
OVCAR-3 ovarian = tested on: OVCAR-3 ovarian
OVCAR-4 ovarian = tested on: OVCAR-4 ovarian
OVCAR-5 ovarian = tested on: OVCAR-5 ovarian
OVCAR-8 ovarian = tested on: OVCAR-8 ovarian
PC-3 prostate = tested on: PC-3 prostate
RPMI-8226 leukemia = tested on: RPMI-8226 leukemia
RXF 393 renal = tested on: RXF 393 renal
SF-268 CNS = tested on: SF-268 CNS
SF-295 CNS = tested on: SF-295 CNS
SF-539 CNS = tested on: SF-539 CNS
SK-MEL-2 melanoma = tested on: SK-MEL-2 melanoma
SK-MEL-28 melanoma = tested on: SK-MEL-28 melanoma
SK-MEL-5 melanoma = tested on: SK-MEL-5 melanoma
SK-OV-3 ovarian = tested on: SK-OV-3 ovarian
SN12C renal = tested on: SN12C renal
SNB-19 CNS = tested on: SNB-19 CNS
SNB-75 CNS = tested on: SNB-75 CNS
SR leukemia = tested on: SR leukemia
SW-620 colon = tested on: SW-620 colon
T-47D breast = tested on: T-47D breast
TK-10 renal = tested on: TK-10 renal
U251 CNS = tested on: U251 CNS
UACC-257 melanoma = tested on: UACC-257 melanoma
UACC-62 melanoma = tested on: UACC-62 melanoma
UO-31 renal = tested on: UO-31 renal

## Cc1ccc(-c2nc(C#N)c(S(=O)(=O)N3CCN(S(C)(=O)=O)CC3)o2)cc1
786-0 renal
  GI50: 64 µM
  TGI: > 100 µM
A498 renal
  GI50: > 100 µM
  TGI: > 100 µM
A549 NSCLC
  GI50: > 100 µM
  TGI: > 100 µM
ACHN renal
  GI50: 44.1 µM
  TGI: > 100 µM
BT-549 breast
  GI50: 47.4 µM
  TGI: > 100 µM
CAKI-1 renal
  GI50: > 100 µM
  TGI: > 100 µM
CCRF-CEM leukemia
  GI50: 3.83 µM
  TGI: > 100 µM
COLO 205 colon
  GI50: > 100 µM
  TGI: > 100 µM
DU-145 prostate
  GI50: > 100 µM
  TGI: > 100 µM
EKVX NSCLC
  GI50: > 100 µM
  TGI: > 100 µM
HCC-2998 colon
  GI50: 53.8 µM
  TGI: > 100 µM
HCT-116 colon
  GI50: 11.8 µM
  TGI: 34.7 µM
HCT-15 colon
  GI50: 3.81 µM
  TGI: 62.5 µM
HL-60(TB) leukemia
  GI50: 65.2 µM
  TGI: > 100 µM
HOP-62 NSCLC
  GI50: > 100 µM
  TGI: > 100 µM
HOP-92 NSCLC
  GI50: > 100 µM
  TGI: > 100 µM
HS 578T breast
  GI50: > 100 µM
  TGI: > 100 µM
HT29 colon
  GI50: 37.1 µM
  TGI: > 100 µM
IGROV1 ovarian
  GI50: > 100 µM
  TGI: > 100 µM
K-562 leukemia
  GI50: 6.66 µM
  TGI: > 100 µM
KM12 colon
  GI50: > 100 µM
  TGI: > 100 µM
LOX IMVI melanoma
  GI50: 2.97 µM
  TGI: 16 µM
M14 melanoma
  GI50: 26.3 µM
  TGI: > 100 µM
MALME-3M melanoma
  GI50: > 100 µM
  TGI: > 100 µM
MCF7 breast
  GI50: 3.74 µM
  TGI: > 100 µM
MDA-MB-231 breast
  GI50: > 100 µM
  TGI: > 100 µM
MDA-MB-435
  GI50: 37.8 µM
  TGI: > 100 µM
MDA-MB-468 breast
  GI50: 28.2 µM
  TGI: > 100 µM
MOLT-4 leukemia
  GI50: 7.61 µM
  TGI: 37 µM
NCI-H226 lung
  GI50: > 100 µM
  TGI: > 100 µM
NCI-H23 lung
  GI50: 19.3 µM
  TGI: > 100 µM
NCI-H460 lung
  GI50: > 100 µM
  TGI: > 100 µM
NCI-H522 lung
  GI50: 2.17 µM
  TGI: 5.94 µM
NCI/ADR-RES ovarian
  GI50: 28 µM
  TGI: > 100 µM
OVCAR-3 ovarian
  GI50: 24.6 µM
  TGI: > 100 µM
OVCAR-4 ovarian
  GI50: > 100 µM
  TGI: > 100 µM
OVCAR-5 ovarian
  GI50: > 100 µM
  TGI: > 100 µM
OVCAR-8 ovarian
  GI50: 23.2 µM
  TGI: > 100 µM
PC-3 prostate
  GI50: > 100 µM
  TGI: > 100 µM
RPMI-8226 leukemia
  GI50: 26.7 µM
  TGI: > 100 µM
RXF 393 renal
  GI50: 75.6 µM
  TGI: > 100 µM
SF-268 CNS
  GI50: > 100 µM
  TGI: > 100 µM
SF-295 CNS
  GI50: 61.7 µM
  TGI: > 100 µM
SF-539 CNS
  GI50: 73.3 µM
  TGI: > 100 µM
SK-MEL-2 melanoma
  GI50: > 100 µM
  TGI: > 100 µM
SK-MEL-28 melanoma
  GI50: > 100 µM
  TGI: > 100 µM
SK-MEL-5 melanoma
  GI50: > 100 µM
  TGI: > 100 µM
SK-OV-3 ovarian
  GI50: > 100 µM
  TGI: > 100 µM
SN12C renal
  GI50: 75.1 µM
  TGI: > 100 µM
SNB-19 CNS
  GI50: > 100 µM
  TGI: > 100 µM
SNB-75 CNS
  GI50: > 100 µM
  TGI: > 100 µM
SR leukemia
  GI50: 3.16 µM
  TGI: 26 µM
SW-620 colon
  GI50: 2.48 µM
  TGI: 6.92 µM
T-47D breast
  GI50: 19.2 µM
  TGI: > 100 µM
TK-10 renal
  GI50: > 100 µM
  TGI: > 100 µM
U251 CNS
  GI50: 51.7 µM
  TGI: > 100 µM
UACC-257 melanoma
  GI50: 60.4 µM
  TGI: > 100 µM
UACC-62 melanoma
  GI50: > 100 µM
  TGI: > 100 µM
UO-31 renal
  GI50: > 100 µM
  TGI: > 100 µM
